Reference: PMC7961048, “Hierarchized phosphotarget binding by the seven human 14-3-3 isoforms” (Nature Communications, 2021)
Where two headings read alike, the source gives them in different places. Starred links: 1 amine or outer side, 2 acyl side, 3 side chain; linkers in the order of their positions; H or OH if unused. Non-standard residues stand in square brackets, D forms with d. Residues, ends and D or L forms follow the SMILES beside them. *: point of attachment. X1 = O=C(CCCC[C@@H]1SC[C@@H]2NC(=O)N[C@@H]21)NCCCOCCOCCOCCCN*; pT = C[C@@H](OP(=O)(O)O)[C@H](N)C(=O)O; Suc = O=C(CCC(=O)[*:2])[*:1]

Columns and labels:
Assay in all cases: biochemical
Type in all cases: binding
14-3-3β = target: T1, 14-3-3β (Homo sapiens, UniProt P31946)
T1 construct: cDNAs encoding other full-length 14-3-3 isoforms β, τ, η, and σ were obtained as codon-optimized; made in house; host or cells: E. coli BL21(DE3)
T1 sequence (P31946 1-246): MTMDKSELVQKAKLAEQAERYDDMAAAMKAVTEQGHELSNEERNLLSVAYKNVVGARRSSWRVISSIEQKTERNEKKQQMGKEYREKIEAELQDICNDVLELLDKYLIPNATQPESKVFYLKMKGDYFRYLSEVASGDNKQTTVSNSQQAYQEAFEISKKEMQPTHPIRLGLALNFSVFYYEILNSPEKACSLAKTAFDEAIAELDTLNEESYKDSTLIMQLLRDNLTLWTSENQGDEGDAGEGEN

14-3-3γ = target: T2, 14-3-3γ (Homo sapiens, UniProt P61981)
T2 construct: full-length human 14-3-3 constructs with an N-terminal MBP fusion were used; made in house; host or cells: E. coli BL21(DE3)
T2 sequence (P61981 1-247): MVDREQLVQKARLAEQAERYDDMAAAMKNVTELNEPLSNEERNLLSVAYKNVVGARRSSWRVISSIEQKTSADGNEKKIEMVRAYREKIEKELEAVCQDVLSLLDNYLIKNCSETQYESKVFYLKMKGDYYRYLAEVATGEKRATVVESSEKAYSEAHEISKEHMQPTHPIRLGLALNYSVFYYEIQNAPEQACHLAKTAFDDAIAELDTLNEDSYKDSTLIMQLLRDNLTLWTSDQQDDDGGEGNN

14-3-3ε = target: T3, 14-3-3ε (Homo sapiens, UniProt P62258)
T3 construct: Plasmids containing the cDNAs of the full-length 14-3-3 isoforms ε, γ, and ζ were received; made in house; host or cells: E. coli BL21(DE3)
T3 sequence (P62258 1-255): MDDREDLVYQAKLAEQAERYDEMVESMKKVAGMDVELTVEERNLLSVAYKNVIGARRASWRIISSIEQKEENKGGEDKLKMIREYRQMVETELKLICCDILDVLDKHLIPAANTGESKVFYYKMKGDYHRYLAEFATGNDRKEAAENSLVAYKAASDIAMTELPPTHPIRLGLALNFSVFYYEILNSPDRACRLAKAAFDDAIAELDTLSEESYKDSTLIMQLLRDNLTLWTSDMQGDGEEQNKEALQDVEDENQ

14-3-3η = target: T4, 14-3-3η (Homo sapiens, UniProt Q04917)
T4 construct: cDNAs encoding other full-length 14-3-3 isoforms β, τ, η, and σ were obtained as codon-optimized; made in house; host or cells: E. coli BL21(DE3)
T4 sequence (Q04917 1-246): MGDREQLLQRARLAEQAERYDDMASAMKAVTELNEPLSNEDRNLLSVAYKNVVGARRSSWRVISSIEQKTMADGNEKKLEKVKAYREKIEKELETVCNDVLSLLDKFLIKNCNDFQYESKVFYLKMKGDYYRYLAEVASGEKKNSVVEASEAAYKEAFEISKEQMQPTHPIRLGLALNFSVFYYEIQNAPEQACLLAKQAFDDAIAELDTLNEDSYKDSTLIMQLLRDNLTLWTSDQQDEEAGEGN

| SMILES | Kd (14-3-3β) | Kd (14-3-3γ) | Kd (14-3-3ε) | Binding affinities (KD) of various 14-3-3-binding motifs, 14-3-3ε (14-3-3ε; Figure 4 panel a, unit from the colour scale line, motifs measured in this work) | Kd (14-3-3γ; Binding affinities (KD) of various 14-3-3-binding motifs, 14-3-3γ) | Kd (14-3-3γ; KD (μM) ± std 14-3-3γ) | Kd (14-3-3η) | Binding affinities (KD) of various 14-3-3-binding motifs, 14-3-3β (14-3-3β) | Binding affinities (KD) of various 14-3-3-binding motifs, 14-3-3ε (14-3-3ε) |
| --- | --- | --- | --- | --- | --- | --- | --- | --- | --- |
| CC(C)C[C@H](NC(=O)[C@H](CCC(N)=O)NC(=O)[C@@H](NC(=O)[C@H](CCC(=O)O)NC(=O)[C@H](CCCNC(=N)N)NC(=O)[C@H](CCCNC(=N)N)NC(=O)[C@@H](NC(=O)[C@H](CCCNC(=N)N)NC(=O)[C@H](CO)NC(=O)[C@H](CO)NC(=O)CCC(=O)NCCCOCCOCCOCCCNC(=O)CCCC[C@@H]1SC[C@@H]2NC(=O)N[C@@H]21)[C@@H](C)O)[C@@H](C)OP(=O)(O)O)C(=O)O [pHPV16E6] | 159 ± 45 µM | 37.2 ± 3 µM | > 300 µM | √ |  |  |  |  |  |
| CC(C)C[C@H](NC(=O)[C@H](CCCNC(=N)N)NC(=O)CCC(=O)NCCCOCCOCCOCCCNC(=O)CCCC[C@@H]1SC[C@@H]2NC(=O)N[C@@H]21)C(=O)N[C@@H](CCC(N)=O)C(=O)N[C@@H](CCCNC(=N)N)C(=O)N[C@@H](CCCNC(=N)N)C(=O)N[C@@H](CCCNC(=N)N)C(=O)N[C@@H](CCC(=O)O)C(=O)N[C@H](C(=O)N[C@@H](CCC(N)=O)C(=O)N[C@H](C(=O)O)C(C)C)[C@@H](C)OP(=O)(O)O [pHPV18E6] | 42.2 ± 6.3 µM | 11.1 ± 0.6 µM |  |  |  |  |  |  |  |
| CC(C)C[C@H](NC(=O)[C@H](C)NC(=O)[C@@H](NC(=O)[C@H](CCC(=O)O)NC(=O)[C@H](CCCNC(=N)N)NC(=O)[C@H](CCCNC(=N)N)NC(=O)[C@H](CCCNC(=N)N)NC(=O)[C@H](CO)NC(=O)[C@H](CCCNC(=N)N)NC(=O)[C@H](CO)NC(=O)CCC(=O)NCCCOCCOCCOCCCNC(=O)CCCC[C@@H]1SC[C@@H]2NC(=O)N[C@@H]21)[C@@H](C)OP(=O)(O)O)C(=O)O [pHPV33E6] ({X1-Suc}-SRSRRRE[pT]AL-OH) | 4.05 µM |  | 10.3 µM |  | 0.94 µM | < 1 µM | 1.98 µM |  |  |
| CC(C)[C@H](NC(=O)[C@H](C)NC(=O)[C@@H](NC(=O)[C@H](CCC(=O)O)NC(=O)[C@H](CCCNC(=N)N)NC(=O)[C@H](CCCNC(=N)N)NC(=O)[C@@H](NC(=O)[C@@H]1CCCN1C(=O)[C@H](CCCCN)NC(=O)[C@H](CO)NC(=O)CCC(=O)NCCCOCCOCCOCCCNC(=O)CCCC[C@@H]1SC[C@@H]2NC(=O)N[C@@H]21)[C@@H](C)O)[C@@H](C)OP(=O)(O)O)C(=O)O [pHPV35E6E-1A] ({X1-Suc}-SKPTRRE[pT]AV-OH) | 20.2 µM | 9.31 µM | 31.9 µM |  |  |  | 12.4 µM |  |  |
| CC(C)[C@H](NC(=O)[C@H](CCC(=O)O)NC(=O)[C@@H](NC(=O)[C@H](CCC(=O)O)NC(=O)[C@H](CCCNC(=N)N)NC(=O)[C@H](CCCNC(=N)N)NC(=O)[C@H](CCCNC(=N)N)NC(=O)[C@@H]1CCCN1C(=O)[C@H](CCCCN)NC(=O)[C@H](CO)NC(=O)CCC(=O)NCCCOCCOCCOCCCNC(=O)CCCC[C@@H]1SC[C@@H]2NC(=O)N[C@@H]21)[C@@H](C)OP(=O)(O)O)C(=O)O [pHPV35E6T-6R] ({X1-Suc}-SKPRRRE[pT]EV-OH) | 179 ± 29 µM | 71.2 ± 6.7 µM |  |  |  |  | 85 ± 20.6 µM |  |  |
| CC(C)[C@H](NC(=O)[C@H](CCC(=O)O)NC(=O)[C@@H](NC(=O)[C@H](CCC(=O)O)NC(=O)[C@H](CCCNC(=N)N)NC(=O)[C@H](CCCNC(=N)N)NC(=O)[C@@H](NC(=O)[C@@H]1CCCN1C(=O)[C@H](CCCCN)NC(=O)[C@H](CO)NC(=O)CCC(=O)NCCCOCCOCCOCCCNC(=O)CCCC[C@@H]1SC[C@@H]2NC(=O)N[C@@H]21)[C@@H](C)O)[C@@H](C)OP(=O)(O)O)C(=O)O [pHPV35E6] ({X1-Suc}-SKPTRRE[pT]EV-OH) | > 300 µM |  | > 300 µM |  |  | 125 ± 6 µM | 163 ± 19 µM | √ | √ |
